{"source": "PubChem BioAssay AID1996"}
{"conditions": "buffer; pH 7.4; 200.0 µM", "units": {"solubility kinetic": "µg/mL"}}
{"molecule": "CN=C(Nc1cccc(S(=O)(=O)N2CCOCC2)c1)c1ccccc1", "solubility kinetic": 17.2}
{"molecule": "CC(C)=C(NC(=O)c1ccccc1)C(=O)NCc1ccccc1", "solubility kinetic": "> 46.3"}
{"molecule": "CC1(C)CC(NC(=O)c2cc(S(=O)(=O)N3CCOCC3)ccc2Cl)CC(C)(C)N1.Cl", "solubility kinetic": "> 72.1"}
{"molecule": "COc1ccc(CNc2ncccn2)cc1OC", "solubility kinetic": "> 36.8"}
{"molecule": "CCCOc1ncnc2c1[nH]c1ccc(C)cc12", "solubility kinetic": 0.9}
{"molecule": "CCc1c(O)c(-c2ccccc2)c(=O)n(-c2ccccn2)c1-c1ccccc1", "solubility kinetic": "> 55.3"}
{"molecule": "O=C1/C(=C\\c2cccnc2)N2CCC1CC2", "solubility kinetic": "> 32.1"}
{"molecule": "CCn1cc(C(=O)N2CCCCC2)c2ccccc21", "solubility kinetic": "> 38.5"}
{"molecule": "S=c1[nH]c(-c2cccs2)cn1-c1ccccc1", "solubility kinetic": 10.5}
{"molecule": "CC(C)(C)C(=O)N1CCN(c2ncccc2C(F)(F)F)CC1", "solubility kinetic": "> 47.3"}
{"molecule": "COc1cc2c(cc1OC)CN(C(=O)COc1ccccc1C#N)CC2", "solubility kinetic": 15}
{"molecule": "CN(c1ccccc1)S(=O)(=O)c1cccc(C(=O)NCC(=O)Nc2ccc(F)c(F)c2F)c1", "solubility kinetic": 5.3}
{"molecule": "Cc1noc2ncnc(SCc3ccc(C(F)(F)F)cc3)c12", "solubility kinetic": 1.1}
{"molecule": "N/C(=N\\OC(=O)c1ccc(F)cc1)c1cccc([N+](=O)[O-])c1", "solubility kinetic": 2.3}
{"molecule": "O=C(CCc1ccccc1)Nc1ccc2c(c1)C(=O)OC2", "solubility kinetic": 15.4}
{"molecule": "CCCCNC(=O)c1cc2c(=O)n(CC)c3ccccc3c2s1", "solubility kinetic": "< 0.4"}
{"molecule": "CC(C)CCOc1ccc(C2CC(=O)N(C)C2=O)cc1", "note": "(centres undefined)", "solubility kinetic": 40.3}
{"molecule": "O=C(NCc1ccccc1Cl)c1ccc2c(c1)OCO2", "solubility kinetic": "> 43.5"}
{"molecule": "CC(=O)Nc1sc(C)c(C)c1C(=O)OCC(=O)Nc1ccc(S(N)(=O)=O)cc1", "solubility kinetic": 8.4}
{"molecule": "CC(C)c1ccccc1OCC(=O)N1CCCCCCC1", "solubility kinetic": 18.8}
{"molecule": "CCc1ccccc1NC(=O)CC(NCc1ccccc1)C(=O)O", "note": "(centres undefined)", "solubility kinetic": "> 49"}
{"molecule": "CN1CCN(C(=O)C2CC(=O)N(c3ccc(Cl)cc3)C2)CC1", "note": "(centres undefined)", "solubility kinetic": 42.7}
{"molecule": "CC(Sc1ccccc1)C(=O)N(CCC#N)Cc1cccnc1", "note": "(centres undefined)", "solubility kinetic": "> 48.8"}
{"molecule": "CCOC(=O)C1=C(COC(=O)/C=C/c2ccco2)NC(=O)NC1C", "note": "(centres undefined)", "solubility kinetic": 23.1}
{"molecule": "CCc1ccc(OCCCCCn2ccnc2)cc1", "solubility kinetic": 19.5}
{"molecule": "COc1ccc(NC(=O)CCn2cc(C)c3ccccc32)cc1", "solubility kinetic": 4.4}
{"molecule": "COc1ccc(S(=O)(=O)NCCc2c[nH]c3ccc(C)cc23)cc1", "solubility kinetic": 17.3}
{"molecule": "C/C(CC(=O)Nc1ccc(Cl)cc1C(F)(F)F)=N\\NC(N)=S", "solubility kinetic": "> 52.9"}
{"molecule": "COC(=O)c1ccc(COC(=O)CNC(=O)CNC(=O)c2ccc(OC)cc2)cc1", "solubility kinetic": 16.1}
{"molecule": "C[N+](C)=C1SCC(C)(/C=N/O)S1.[Br-]", "note": "(centres undefined)", "solubility kinetic": "> 42.8"}
{"molecule": "CCOC(=O)C1CCCN(C(=O)c2cc3cc(F)ccc3[nH]2)C1", "note": "(centres undefined)", "solubility kinetic": 23.9}
{"molecule": "CC(OC(=O)c1nsc(Cl)c1Cl)C(=O)NC1CCCCC1", "note": "(centres undefined)", "solubility kinetic": 31.6}
{"molecule": "COc1cc(C(C)=O)ccc1Oc1cnccn1", "solubility kinetic": "> 36.6"}
{"molecule": "Cc1ccc(NC(=S)Nc2cc(C)on2)cc1", "solubility kinetic": 31.8}
{"molecule": "O=C(/C=C/c1cccc(F)c1)NCc1ccc2c(c1)OCO2", "solubility kinetic": 3.3}
{"molecule": "c1ccc(CCc2ccncc2)cc1", "solubility kinetic": 13}
{"molecule": "Cc1ccc(CC(=O)NC2CCN(Cc3ccccc3)CC2)cc1", "solubility kinetic": 41.7}
{"molecule": "CCN(CC)C(=S)SC1=CCS(=O)(=O)C1", "solubility kinetic": 26.8}
{"molecule": "CCCC1C(=O)Nc2ccccc2N1C(=O)c1cccc(C)c1", "note": "(centres undefined)", "solubility kinetic": "> 46.3"}
{"molecule": "N#Cc1ccc(Cn2c(=O)oc3ccccc32)cc1", "solubility kinetic": 6}
{"molecule": "COc1cc(OC)c(NC(=O)C2CCCO2)cc1Cl", "note": "(centres undefined)", "solubility kinetic": "> 42.9"}
{"molecule": "CN(c1ccc(OCC(=O)Nc2cc(Cl)ccc2C(=O)O)cc1)S(=O)(=O)c1ccc(F)cc1", "solubility kinetic": "> 73.9"}
{"molecule": "COc1cc(OC)c(C=O)c(OC(=O)N(C)C)c1", "solubility kinetic": 35.8}
{"molecule": "Cc1ccccc1Cn1c(C)nc2ccc([N+](=O)[O-])cc2c1=O", "solubility kinetic": 6.9}
{"molecule": "O=C(Nc1cccnc1)Nc1cccc(F)c1", "solubility kinetic": "> 34.7"}
{"molecule": "COc1cccc(NC(=O)CC(=O)c2ccccc2)c1", "solubility kinetic": "> 40.4"}
{"molecule": "CC(=O)c1ccc(NC(=O)c2cccc(NC(=O)c3ccccc3)c2)cc1", "solubility kinetic": 0.7}
{"molecule": "Cc1cc(C)c(C)c(OCC(=O)O/N=C(\\N)c2ccncc2)c1", "solubility kinetic": 28.5}
{"molecule": "NC(=O)c1ccc(NC(=O)COC(=O)CCSc2ccccc2)cc1", "solubility kinetic": 15.1}
{"molecule": "O=C(Nc1ccccn1)c1ccc(Cl)s1", "solubility kinetic": 30.9}
{"molecule": "O=C1CNC(=O)/C(=C\\c2ccccc2)N1", "solubility kinetic": "> 30.3"}
{"molecule": "COc1cc(/C=C/C(=O)O)cc(S(=O)(=O)Nc2cc(C(F)(F)F)ccc2N2CCOCC2)c1OC", "solubility kinetic": "> 77.5"}
{"molecule": "CCN(CC)CCOC(=O)c1ccc(Cl)cc1Cl.Cl", "solubility kinetic": "> 49"}
{"molecule": "COc1ccc(NC(=O)/C(C#N)=C/c2cccnc2)c(OC)c1", "solubility kinetic": 24.8}
{"molecule": "CN(C)c1cccc(C(=O)NCc2ccc3c(c2)OCO3)c1", "solubility kinetic": "> 44.8"}
{"molecule": "COc1ccc(C(=O)OC(C)CN2CCN(C)CC2)cc1.Cl", "note": "(centres undefined)", "solubility kinetic": "> 49.3"}
{"molecule": "CC(C)(C)C(=O)NC(=S)N1CCc2ccccc21", "solubility kinetic": 31}
{"molecule": "CCc1ccc2[nH]c(C(=O)Nc3ccc4c(c3)OCO4)cc2c1", "solubility kinetic": 0.8}
{"molecule": "Cc1ccccc1C(=O)Nc1nc(-c2cccnc2)cs1", "solubility kinetic": 3.9}
